Source: ChEMBL document CHEMBL1201861, “Genomics of Drug Sensitity in Cancer screening data, Wellcome Trust Sanger Institute”

Tests used:
Test in all cases: cells
COLO-741 = type: functional, cell-based, Homo sapiens; details: Homo sapiens, COLO-741
Description: SANGER: Inhibition of human COLO-741 cell growth in a cell viability assay.

COR-L105 = type: functional, cell-based, Homo sapiens; details: Homo sapiens, COR-L105;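 note: cell growth inhibition determined with a viability assay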
Description: SANGER: Inhibition of human COR-L105 cell growth in a cell viability assay.

CPC-N = type: functional, cell-based, Homo sapiens; details: Homo sapiens, CPC-N;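 note: growth inhibition of CPC-N cells, with a cell viability assay as the readout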
Description: SANGER: Inhibition of human CPC-N cell growth in a cell viability assay.

D-542MG = type: functional, cell-based, Homo sapiens; details: Homo sapiens, D-542MG
Description: SANGER: Inhibition of human D-542MG cell growth in a cell viability assay.

DK-MG = type: functional, cell-based, Homo sapiens; details: Homo sapiens, DK-MG;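 note: growth inhibition of DK-MG cells, read out with a cell viability assay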
Description: SANGER: Inhibition of human DK-MG cell growth in a cell viability assay.

EFM-19 = type: functional, cell-based, Homo sapiens; details: Homo sapiens, EFM-19;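 note: growth inhibition of human EFM-19 cells, measured in a cell viability assay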
Description: SANGER: Inhibition of human EFM-19 cell growth in a cell viability assay.

GMS-10 = type: functional, cell-based, Homo sapiens; details: Homo sapiens, GMS-10;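 note: growth inhibition of GMS-10 cells, read out as cell viability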
Description: SANGER: Inhibition of human GMS-10 cell growth in a cell viability assay.

GP5d = type: functional, cell-based, Homo sapiens; details: Homo sapiens, GP5d;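 note: growth inhibition of human GP5d cells, read out with a cell viability assay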
Description: SANGER: Inhibition of human GP5d cell growth in a cell viability assay.

HCC1419 = type: functional, cell-based, Homo sapiens; details: Homo sapiens, HCC1419;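 note: growth inhibition of human HCC1419 cells, read out as cell viability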
Description: SANGER: Inhibition of human HCC1419 cell growth in a cell viability assay.

HMV-2 cell line = type: functional, cell-based, Homo sapiens; details: Homo sapiens, HMV-2;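 note: growth inhibition of HMV-II cells, read out with a cell viability assay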
Description: SANGER: Inhibition of human HMV-II cell growth in a cell viability assay.

HOS = type: functional, cell-based, Homo sapiens; details: Homo sapiens, HOS;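 note: growth inhibition of human HOS cells, read out with a cell viability assay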
Description: SANGER: Inhibition of human HOS cell growth in a cell viability assay.

HSC-4 = type: functional, cell-based, Homo sapiens; details: Homo sapiens, HSC-4;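 note: growth inhibition of human HSC-4 cells, read out with a cell viability assay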
Description: SANGER: Inhibition of human HSC-4 cell growth in a cell viability assay.

IMR-5 = type: functional, cell-based, Homo sapiens; details: Homo sapiens, IMR-5;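 note: growth inhibition of human IMR-5 cells, read out with a cell viability assay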
Description: SANGER: Inhibition of human IMR-5 cell growth in a cell viability assay.

K052 = type: functional, cell-based, Homo sapiens; details: Homo sapiens, K052;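 note: Read-out from a cell viability assay, IC50 reflecting suppression of K052 cell growth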
Description: SANGER: Inhibition of human K052 cell growth in a cell viability assay.

KOSC-2 = type: functional, cell-based, Homo sapiens; details: Homo sapiens, KOSC-2;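 note: growth inhibition of KOSC-2 cells, read out by a cell viability assay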
Description: SANGER: Inhibition of human KOSC-2 cell growth in a cell viability assay.

KYSE-150 cell line = type: functional, cell-based, Homo sapiens; details: Homo sapiens, KYSE-150;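 note: growth inhibition of human KYSE-150 cells, read out with a cell viability assay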
Description: SANGER: Inhibition of human KYSE-150 cell growth in a cell viability assay.

KYSE-410 = type: functional, cell-based, Homo sapiens; details: Homo sapiens, KYSE-410;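 note: growth inhibition of KYSE-410 cells, measured through a cell viability readout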
Description: SANGER: Inhibition of human KYSE-410 cell growth in a cell viability assay.

LC4-1 = type: functional, cell-based, Homo sapiens; details: Homo sapiens, LC4-1;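 note: growth inhibition of LC4-1 cells, read out with a cell viability assay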
Description: SANGER: Inhibition of human LC4-1 cell growth in a cell viability assay.

M059J = type: functional, cell-based, Homo sapiens; details: Homo sapiens, M059J;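 note: growth inhibition of M059J cells, read out with a cell viability assay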
Description: SANGER: Inhibition of human M059J cell growth in a cell viability assay.

MDA-MB-231 = type: functional, cell-based, Homo sapiens; details: Homo sapiens, MDA-MB-231
Description: SANGER: Inhibition of human MDA-MB-231 cell growth in a cell viability assay.

MKN-1 = type: functional, cell-based, Homo sapiens; details: Homo sapiens, MKN-1;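 note: growth inhibition of human MKN1 cells, read out by a cell viability measurement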
Description: SANGER: Inhibition of human MKN1 cell growth in a cell viability assay.

MKN-7 = type: functional, cell-based, Homo sapiens; details: Homo sapiens, MKN-7;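 note: growth inhibition of MKN-7 cells, read out with a cell viability assay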
Description: SANGER: Inhibition of human MKN7 cell growth in a cell viability assay.

NCI-H1563 = type: functional, cell-based, Homo sapiens; details: Homo sapiens, NCI-H1563;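 note: growth inhibition of human NCI-H1563 cells, read out with a cell viability assay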
Description: SANGER: Inhibition of human NCI-H1563 cell growth in a cell viability assay.

NCI-H1573 = type: functional, cell-based, Homo sapiens; details: Homo sapiens, NCI-H1573;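 note: growth inhibition of NCI-H1573 cells, read out with a cell viability assay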
Description: SANGER: Inhibition of human NCI-H1573 cell growth in a cell viability assay.

NCI-H1793 = type: functional, cell-based, Homo sapiens; details: Homo sapiens, NCI-H1793;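 note: cell growth inhibition, read out by a cell viability assay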
Description: SANGER: Inhibition of human NCI-H1793 cell growth in a cell viability assay.

NCI-H1963 = type: functional, cell-based, Homo sapiens; details: Homo sapiens, NCI-H1963;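 note: cell growth inhibition of the human line, determined with a cell viability assay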
Description: SANGER: Inhibition of human NCI-H1963 cell growth in a cell viability assay.

NCI-H1993 = type: functional, cell-based, Homo sapiens; details: Homo sapiens, NCI-H1993;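 note: growth inhibition of the cancer cell line, assessed with a cell viability assay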
Description: SANGER: Inhibition of human NCI-H1993 cell growth in a cell viability assay.

OAW-42 = type: functional, cell-based, Homo sapiens; details: Homo sapiens, OAW-42;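 note: growth inhibition of OAW-42 cells, read out with a cell viability assay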
Description: SANGER: Inhibition of human OAW-42 cell growth in a cell viability assay.

PANC-08-13 = type: functional, cell-based, Homo sapiens; details: Homo sapiens, PANC-08-13;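 note: cell growth inhibition, measured with a cell viability assay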
Description: SANGER: Inhibition of human PANC-08-13 cell growth in a cell viability assay.

Panc1005 = type: functional, cell-based, Homo sapiens; details: Homo sapiens, Panc1005;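 note: growth inhibition of human PANC-10-05 cells, measured by a cell viability assay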
Description: SANGER: Inhibition of human PANC-10-05 cell growth in a cell viability assay.

RERF-LC-MS = type: functional, cell-based, Homo sapiens; details: Homo sapiens, RERF-LC-MS;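 note: growth inhibition of human RERF-LC-MS cells, read out by a cell viability assay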
Description: SANGER: Inhibition of human RERF-LC-MS cell growth in a cell viability assay.

RMG-I = type: functional, cell-based, Homo sapiens; details: Homo sapiens, RMG-I;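 note: growth inhibition of human RMG-I cells, read out with a cell viability assay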
Description: SANGER: Inhibition of human RMG-I cell growth in a cell viability assay.

Raji = type: functional, cell-based, Homo sapiens; details: Homo sapiens, Raji;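 note: cell viability assay measuring inhibition of Raji cell growth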
Description: SANGER: Inhibition of human Raji cell growth in a cell viability assay.

SAS = type: functional, cell-based, Homo sapiens; details: Homo sapiens, SAS;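 note: growth inhibition of SAS cells, read out with a cell viability assay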
Description: SANGER: Inhibition of human SAS cell growth in a cell viability assay.

SK-MEL-28 = type: functional, cell-based, Homo sapiens; details: Homo sapiens, SK-MEL-28;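 note: growth inhibition of human SK-MEL-28 cells, read out with a cell viability assay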
Description: SANGER: Inhibition of human SK-MEL-28 cell growth in a cell viability assay.

SK-MEL3 = type: functional, cell-based, Homo sapiens, SK-MEL-3; details: Homo sapiens, SK-MEL3;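 note: growth inhibition of human SK-MEL-3 cells, read out with a cell viability assay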
Description: SANGER: Inhibition of human SK-MEL-3 cell growth in a cell viability assay.

SNU-449 = type: functional, cell-based, Homo sapiens; details: Homo sapiens, SNU-449
Description: SANGER: Inhibition of human SNU-449 cell growth in a cell viability assay.

SR = type: functional, cell-based, Homo sapiens; details: Homo sapiens, SR
Description: SANGER: Inhibition of human SR cell growth in a cell viability assay.

769-P = type: functional, cell-based, Homo sapiens; details: Homo sapiens, 769-P
Description: SANGER: Inhibition of human 769-P cell growth in a cell viability assay.

BXPC-3 = type: functional, cell-based, Homo sapiens; details: Homo sapiens, BXPC-3;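 note: growth inhibition of human BxPC-3 cells, read out by a cell viability assay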
Description: SANGER: Inhibition of human BxPC-3 cell growth in a cell viability assay.

C32 = type: functional, cell-based, Homo sapiens; details: Homo sapiens, C32;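 note: cell viability assay, with IC50 reflecting inhibition of C32 cell growth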
Description: SANGER: Inhibition of human C32 cell growth in a cell viability assay.

CAL-85-1 = type: functional, cell-based, Homo sapiens; details: Homo sapiens, CAL-85-1;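 note: growth inhibition of human CAL-85-1 cells, read out with a cell viability assay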
Description: SANGER: Inhibition of human CAL-85-1 cell growth in a cell viability assay.

U-118-MG = type: functional, cell-based, Homo sapiens; details: Homo sapiens, U-118-MG
Description: SANGER: Inhibition of human U-118-MG cell growth in a cell viability assay.

UACC-812 = type: functional, cell-based, Homo sapiens; details: Homo sapiens, UACC-812
Description: SANGER: Inhibition of human UACC-812 cell growth in a cell viability assay.

In the case of `CCC/C=C/C=C/C(=O)O[C@H]1/C(=C/C(=O)OC)C[C@H]2C[C@H]([C@@H](C)O)OC(=O)C[C@H](O)C[C@@H]3C[C@H](OC(C)=O)C(C)(C)[C@](O)(C[C@@H]4C/C(=C/C(=O)OC)C[C@H](/C=C/C(C)(C)[C@]1(O)O2)O4)O3` [BRYOSTATIN 1], the IC50 (COLO-741) is reported as > 8 nM, the IC50 (COR-L105) is reported as > 8 nM and the IC50 (CPC-N) is reported as > 8 nM. For the same compound, the IC50 (D-542MG) was 7.56 nM, the IC50 (DK-MG) was > 8 nM and the IC50 (EFM-19) was > 8 nM. The IC50 (GMS-10) was > 8 nM, the IC50 (GP5d) was > 8 nM and the IC50 (HCC1419) was > 8 nM. The IC50 (HMV-2 cell line) was 2.26 nM, the IC50 (HOS) was > 8 nM and the IC50 (HSC-4) was > 8 nM. For the same compound, the IC50 (IMR-5) was > 8 nM, the IC50 (K052) was > 8 nM and the IC50 (KOSC-2) was > 8 nM. The IC50 (KYSE-150 cell line) was > 8 nM, the IC50 (KYSE-410) was > 8 nM and the IC50 (LC4-1) was > 8 nM. The IC50 (M059J) was 2 nM, the IC50 (MDA-MB-231) was > 8 nM and the IC50 (MKN-1) was > 8 nM. The IC50 (MKN-7) was > 8 nM, the IC50 (NCI-H1563) was > 8 nM and the IC50 (NCI-H1573) was 2.36 nM. For the same compound, the IC50 (NCI-H1793) was > 8 nM, the IC50 (NCI-H1963) was > 8 nM and the IC50 (NCI-H1993) was > 8 nM. For the same compound, the IC50 (OAW-42) was > 8 nM, the IC50 (PANC-08-13) was > 8 nM and the IC50 (Panc1005) was > 8 nM. The IC50 (RERF-LC-MS) was > 8 nM, the IC50 (RMG-I) was > 8 nM and the IC50 (Raji) was > 8 nM. The IC50 (SAS) was > 8 nM, the IC50 (SK-MEL-28) was > 8 nM and the IC50 (SK-MEL3) was > 8 nM. The IC50 (SNU-449) was > 8 nM, the IC50 (SR) was > 8 nM and the IC50 (769-P) was > 8 nM. For the same compound, the IC50 (BXPC-3) was > 8 nM, the IC50 (C32) was > 8 nM and the IC50 (CAL-85-1) was 5.52 nM. The IC50 (U-118-MG) was > 8 nM and the IC50 (UACC-812) was > 8 nM.

In the case of `COc1cccc2c1C(=O)c1c(O)c3c(c(O)c1C2=O)C[C@@](O)(C(=O)CO)C[C@@H]3O[C@H]1C[C@H](N)[C@H](O)[C@H](C)O1` [DOXORUBICIN], the IC50 (COLO-741) is reported as 195 nM, the IC50 (COR-L105) is reported as 189 nM and the IC50 (CPC-N) is reported as 68.4 nM. The IC50 (D-542MG) was > 1020 nM, the IC50 (DK-MG) was > 1020 nM and the IC50 (EFM-19) was 478 nM. The IC50 (GMS-10) was > 1020 nM, the IC50 (GP5d) was 49.1 nM and the IC50 (HCC1419) was 632 nM. For the same compound, the IC50 (HMV-2 cell line) was 22.6 nM, the IC50 (HOS) was 45.3 nM and the IC50 (HSC-4) was 75.8 nM. For the same compound, the IC50 (IMR-5) was 34.7 nM, the IC50 (K052) was > 1020 nM and the IC50 (KOSC-2) was 249 nM. The IC50 (KYSE-150 cell line) was 27.8 nM, the IC50 (KYSE-410) was 103 nM and the IC50 (LC4-1) was 241 nM. For the same compound, the IC50 (M059J) was 31.4 nM, the IC50 (MDA-MB-231) was > 1020 nM and the IC50 (MKN-1) was 9.86 nM. The IC50 (MKN-7) was 690 nM, the IC50 (NCI-H1563) was 556 nM and the IC50 (NCI-H1573) was > 1020 nM. It also gave an IC50 (NCI-H1793) of 901 nM, an IC50 (NCI-H1963) of 430 nM and an IC50 (NCI-H1993) of 1000 nM. For the same compound, the IC50 (OAW-42) was 154 nM, the IC50 (PANC-08-13) was > 1020 nM and the IC50 (Panc1005) was 88.4 nM. It also gave an IC50 (RERF-LC-MS) of 425 nM, an IC50 (RMG-I) of 514 nM and an IC50 (Raji) of 335 nM. For the same compound, the IC50 (SAS) was 114 nM, the IC50 (SK-MEL-28) was > 1020 nM and the IC50 (SK-MEL3) was 148 nM. For the same compound, the IC50 (SNU-449) was 548 nM, the IC50 (SR) was 24.4 nM and the IC50 (769-P) was 20.8 nM. For the same compound, the IC50 (BXPC-3) was 211 nM, the IC50 (C32) was > 1020 nM and the IC50 (CAL-85-1) was 44.5 nM. The IC50 (U-118-MG) was 856 nM and the IC50 (UACC-812) was > 1020 nM.
